The source of these data is ChEMBL document CHEMBL6096639, “Discovery of the first selective and potent PROTAC degrader for the pseudokinase TRIB2” (Eur J Med Chem, 2025).

For test [1], the target named is T1, Protein cereblon/Tribbles homolog 2 (Homo sapiens, UniProt Q96SW2+Q92519). The test is described as follows: PROTAC activity at CRBN/TRIB2 in human PC-3 cells assessed as induction of TRIB2 degradation by measuring maximal efficacy at 100 nM measured after 24 hrs by immunoblot analysis relative to control. Format: cell-based. (In general: A western blot detects proteins with antibodies after separation by electrophoresis.)
Target sequence in this assay (Q96SW2 whole entry, looked up, one chain of several): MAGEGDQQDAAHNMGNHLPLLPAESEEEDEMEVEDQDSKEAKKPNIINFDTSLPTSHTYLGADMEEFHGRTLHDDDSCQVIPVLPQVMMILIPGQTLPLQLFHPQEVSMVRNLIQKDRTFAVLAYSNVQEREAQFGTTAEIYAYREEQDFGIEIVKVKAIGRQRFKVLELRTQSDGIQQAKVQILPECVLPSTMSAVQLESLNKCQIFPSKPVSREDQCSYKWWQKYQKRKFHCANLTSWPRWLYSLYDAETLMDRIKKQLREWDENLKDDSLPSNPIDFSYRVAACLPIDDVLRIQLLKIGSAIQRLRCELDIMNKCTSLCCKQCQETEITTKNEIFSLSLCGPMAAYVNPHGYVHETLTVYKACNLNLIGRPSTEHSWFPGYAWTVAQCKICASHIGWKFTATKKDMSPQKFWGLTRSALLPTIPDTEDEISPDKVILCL

The test system of a further test is HepG2. The test is described as follows: Antiproliferative activity against human HepG2 cells assessed as cell viability. Format: functional.
The target in a further test is T2, Tribbles homolog 2 (Homo sapiens, UniProt Q92519).
T2 sequence (Q92519 whole entry): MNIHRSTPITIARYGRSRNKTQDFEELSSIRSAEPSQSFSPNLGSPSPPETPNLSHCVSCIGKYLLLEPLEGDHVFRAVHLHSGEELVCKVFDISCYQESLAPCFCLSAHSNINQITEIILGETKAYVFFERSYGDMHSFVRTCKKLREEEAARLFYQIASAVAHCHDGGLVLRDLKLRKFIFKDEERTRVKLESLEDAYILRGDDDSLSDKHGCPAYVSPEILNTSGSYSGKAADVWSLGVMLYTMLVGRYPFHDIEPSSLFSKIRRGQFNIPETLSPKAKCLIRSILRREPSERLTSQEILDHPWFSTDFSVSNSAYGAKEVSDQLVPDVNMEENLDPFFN
The experiment in a line: Inhibition of TRIB2 (unknown origin) assessed as reduction in ATP binding affinity incubated for 120 mins in presence of Mg/ATP by radiometric kinase assay.

Another test concerns A549. The experiment in a line: Antiproliferative activity against human A549 cells assessed as cell viability. In kind it is functional.
A short description of test [2]: Antiproliferative activity against human LTL-331R-CL cells assessed as cell viability for 5 days by CTG assay. In kind it is functional, cell-based. The following applies: 120 h.
The subject of test [3] is PC-3. The test is described as follows: Antiproliferative activity against human PC-3 cells assessed as cell viability for 5 days by CTG assay. In kind it is functional, cell-based. Particulars: PC-3, 120 h.
Test [4] has as its target T3, Tribbles homolog 2 (Homo sapiens) (UniProt Q92519).
T3 sequence (whole entry): T2 sequence (Q92519 whole entry)
The test is described as follows: Induction of thermal stabilization of TRIB2 in human PC-3 cells […] at 2 uM preincubated for 3 hrs followed by compound washout and incubated under 45 to 50 degreeC for 3 mins by CETSA based immunoblotting analysis. Format: cell-based.

Test [5] deals with T1, Protein cereblon/Tribbles homolog 2. The experiment in a line: PROTAC activity at CRBN/TRIB2 in human LTL-331R-CL cells assessed as induction of TRIB2 degradation at 1 uM by immunoblotting analysis. In kind it is cell-based.
Target sequence in this assay (Q96SW2 whole entry, looked up, one chain of several): as the sequence (Q96SW2 whole entry, looked up, one chain of several) above
Test [6] has the same target. The test is described as follows: PROTAC activity at CNRB/TRIB2 in human LTL-331R-CL cells assessed as induction of TRIB2 degradation at 1 uM for 4 hrs by comprehensive proteomic analysis using a tandem mass tag (TMT) labeled mass spectrometry. In kind it is cell-based.
Target sequence in this assay (Q96SW2 whole entry, looked up, one chain of several): as the sequence (Q96SW2 whole entry, looked up, one chain of several) above
For test [7] the target is unchanged. The experiment in a line: PROTAC activity at CNRB/TRIB2 in human PC-3 cells assessed as induction of TRIB2 degradation at 0.5 uM pretreated with pomalidomide followed by compound addition and measured after 16 hrs by immunoblotting assay. In kind it is cell-based.
Target sequence in this assay (Q96SW2 whole entry, looked up, one chain of several): as the sequence (Q96SW2 whole entry, looked up, one chain of several) above
Test [8] shares this target. The test is described as follows: PROTAC activity at CRBN/TRIB2 in human PC-3 cells assessed as half maximal degradation by measuring half life at 500 nM by immunoblotting analysis. In kind it is cell-based.
Target sequence in this assay (Q96SW2 whole entry, looked up, one chain of several): as the sequence (Q96SW2 whole entry, looked up, one chain of several) above
Test [9] has as its system PC-3. The test is described as follows: Antiproliferative activity against human PC-3 cells assessed as cell viability at 1 uM by CTG assay. In kind it is functional, cell-based.
The target of test [10] is T4, von Hippel-Lindau disease tumor suppressor/Tribbles homolog 2 (Homo sapiens) (UniProt P40337+Q92519). The test is described as follows: PROTAC activity at VHL/TRIB2 in human PC-3 cells assessed as induction of TRIB2 downregulation at 1000 nM for 24 hrs by immunoblotting analysis. In kind it is cell-based.
T4 sequence (P40337 whole entry, looked up, one chain of several): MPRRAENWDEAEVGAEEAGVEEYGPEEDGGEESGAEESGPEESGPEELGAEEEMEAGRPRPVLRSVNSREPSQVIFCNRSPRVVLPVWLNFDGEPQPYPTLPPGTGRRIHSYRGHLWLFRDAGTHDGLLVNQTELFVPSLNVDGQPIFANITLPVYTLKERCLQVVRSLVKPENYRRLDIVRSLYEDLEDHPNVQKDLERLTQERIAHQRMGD
Test [11] addresses T1, Protein cereblon/Tribbles homolog 2. The test is described as follows: PROTAC activity at CNRB/TRIB2 in human LTL-331R-CL cells assessed as induction of TRIB2 degradation at 1 uM for 4 hrs by immunoblotting assay. In kind it is cell-based.
Target sequence in this assay (Q96SW2 whole entry, looked up, one chain of several): as the sequence (Q96SW2 whole entry, looked up, one chain of several) above
Test [12] concerns the target T4, von Hippel-Lindau disease tumor suppressor/Tribbles homolog 2 (Homo sapiens). The test is described as follows: PROTAC activity at VHL/TRIB2 in human PC-3 cells assessed as induction of TRIB2 degradation at 100 nM for 24 hrs by immunoblotting analysis. In kind it is cell-based.
Test [13] deals with T1, Protein cereblon/Tribbles homolog 2. The test is described as follows: PROTAC activity at CRBN/TRIB2 in human NCI-H660 cells assessed as induction of TRIB2 degradation at 1 uM by immunoblotting analysis. In kind it is cell-based.
Test [14] has the same target. The experiment in a line: PROTAC activity at CRBN/TRIB2 in human PC-3 cells assessed as induction of TRIB2 degradation at 500 nM in presence of 1 uM bortezomib proteasome inhibitor pretreatment for 16 hrs by Western blot analysis. In kind it is cell-based.
Test [15] has the same target. The experiment in a line: PROTAC activity at CRBN/TRIB2 in human PC-3 cells assessed as induction of TRIB2 degradation for 24 hrs by immunoblot analysis. Format: cell-based.
For another test, the system named is LTL-331R-CL. The test is described as follows: Antiproliferative activity against human LTL-331R-CL cells assessed as cell viability at 1 uM by CTG assay. In kind it is functional, cell-based.
Test [16] deals with T1, Protein cereblon/Tribbles homolog 2. The test is described as follows: PROTAC activity at CRBN/TRIB2 in human PC-3 cells assessed as induction of TRIB2 degradation by measuring maximal efficacy at 1 nM measured after 24 hrs by immunoblot analysis relative to control. In kind it is cell-based.

Active and inactive are the calls of the source. The calls are words filed in the database; no cut-off is given here. Where only a bound is given, the exact number is not on record here.

By Emax is commonly meant the maximal effect, on the per cent scale that the assay sets. On to `O=C1CCC(N2C(=O)c3ccc(NCCCC(=O)N4CCc5ccc(NC(=O)c6n[nH]c7ccc(-c8cccnc8F)cc67)cc5C4)cc3C2=O)C(=O)N1` (stereo unspecified), for which the Emax in test [1] worked out at 84.1%.
For orientation: IC50 means the concentration that gives 50% inhibition. `O=C(Nc1ccc2c(c1)CNCC2)c1n[nH]c2ccc(-c3cccnc3F)cc12`: the values for the Activity in the test on HepG2 and with A549 were 10% and 12%, respectively. The IC50 at Tribbles homolog 2 is 65.2 nM; in test [2], 868 nM; in the test with PC-3 [3], 802 nM. For the same molecule, in test [4], the result was Active.
On to `O=C1CCC(N2C(=O)c3ccc(NCCCCCCCC(=O)N4CCc5ccc(NC(=O)c6n[nH]c7ccc(-c8cccnc8F)cc67)cc5C4)cc3C2=O)C(=O)N1` (stereo unspecified), for which the Emax in [1] turned out to be 58.2%.
As for `Nc1cccc2c1C(=O)N(C1CCC(=O)NC1=O)C2=O` (stereo unspecified) [POMALIDOMIDE], the IC50 in test [2] was over 30000 nM; with PC-3 [3], over 5000 nM.
A word on the DC50: it is the midpoint of the concentration-degradation curve. On to `O=C1CCC(N2C(=O)c3ccc(NCCCCCCCCCC(=O)N4CCc5ccc(NC(=O)c6n[nH]c7ccc(-c8cccnc8F)cc67)cc5C4)cc3C2=O)C(=O)N1` (stereo unspecified), for which the outcome (in [5]; in test [6]; in the test on PC-3 [9]; in test [11]; in the test with LTL-331R-CL; in test [4]) was Active. For the same molecule, the outcome in test [7] and in test [14] was inactive. The Emax in test [1] was determined as 92%. In addition, the T1/2 in [8] was over 5.5 h. Further, the Activity result in [10] is “Active; Mild Trib2 Degradation Observed”; in test [12], 100%; in test [13] it was “Time-dependent-effect”; in test [15], “Dose-dependent-effect”. In addition, the DC50 in test [15] was determined as 16.8 nM. Further, the figures for the IC50 (in [2]; in the test with PC-3 [3]) were 30.4 nM and 3.9 nM, respectively.
`O=C1CCC(N2C(=O)c3ccc(NCCCCCC(=O)N4CCc5ccc(NC(=O)c6n[nH]c7ccc(-c8cccnc8F)cc67)cc5C4)cc3C2=O)C(=O)N1` (stereo unspecified): the Emax is 85.6% in test [1] and 24.5% in test [16].
Take `CN1C(=O)CCC(N2C(=O)c3ccc(NCCCCCCCCCC(=O)N4CCc5ccc(NC(=O)c6n[nH]c7ccc(-c8cccnc8F)cc67)cc5C4)cc3C2=O)C1=O` (stereo unspecified): the IC50 in [2] is over 30000 nM; with PC-3 [3], over 5000 nM.
